Where a name gives a salt, the structure may show the parent alone. Read-outs that look alike come from different tables or passages of the source.

From publication PMC7251097, “Aspartate/asparagine-β-hydroxylase: a high-throughput mass spectrometric assay for discovery of small molecule inhibitors” (Scientific Reports, 2020) come the findings set out here.

The target in the assay is T1, His6-AspH315–758 (human aspartate/asparagine-β-hydroxylase, AspH) (Homo sapiens, UniProt Q12797).
T1 construct: N-Terminally His6-tagged human AspH315–758 (His6-AspH315–758) was produced in E. coli BL21 (DE3) cells; made in house; host or cells: E. coli BL21 (DE3), pET-28a(+) vector
T1 sequence (Q12797 315-758): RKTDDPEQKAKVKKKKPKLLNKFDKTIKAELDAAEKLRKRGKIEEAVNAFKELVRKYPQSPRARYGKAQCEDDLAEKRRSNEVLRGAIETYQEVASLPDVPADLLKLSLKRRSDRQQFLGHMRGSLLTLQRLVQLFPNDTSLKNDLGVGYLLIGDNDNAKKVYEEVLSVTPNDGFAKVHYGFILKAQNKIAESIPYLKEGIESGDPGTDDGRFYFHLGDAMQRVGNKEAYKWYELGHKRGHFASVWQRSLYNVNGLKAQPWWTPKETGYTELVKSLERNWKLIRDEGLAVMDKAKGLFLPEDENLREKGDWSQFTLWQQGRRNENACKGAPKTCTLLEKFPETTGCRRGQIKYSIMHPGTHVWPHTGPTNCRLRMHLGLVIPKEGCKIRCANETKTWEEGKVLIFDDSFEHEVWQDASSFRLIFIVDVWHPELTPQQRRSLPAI
Description: SPE-MS AspH inhibition assay (LOPAC screen at fixed 20 μM and IC50 dose-response), hydroxylation of cyclic peptide hFX-CP101–119. The class given is biochemical.

The mark [1] stands for this setting: LOPAC compound at fixed 20 uM, plate 1, normalised to DMSO and 2,4-PDCA controls.
Where [2] appears, read: LOPAC compound at fixed 20 uM, substrate conversion, plate 1.
The mark [3] stands for this setting: LOPAC compound at 20uM, plate 3, conversion of substrate peptide.
Setting [4] is: LOPAC Plate 4, compound at 20 uM.
[5] abbreviates: LOPAC Plate 4, compound at 20 uM, substrate conversion.
Where [6] appears, read: LOPAC compound at 20uM, plate 2, conversion of substrate peptide.
The mark [7] stands for this setting: LOPAC compound at 20uM, plate 2, normalised to DMSO and 2,4-PDCA controls.
The mark [8] stands for this setting: LOPAC compound at 20uM, plate 2, normalised to DMSO and 2,4-PDCA controls, read-out: Plate 2 (% inhibition).

In general, inhibition refers to the relative decrease from the control value, in per cent. In the case of `O=C(O)Cc1ccc(O)c(O)c1` [3,4-Dihydroxyphenylacetic acid, reference compound], the inhibition at 20 µM (AspH activity, fixed compound concentration 20 μM, initial LOPAC screen, 0.5%v/v DMSO, read-out: Inhibition at 20 µM [%]) was determined as 98.6%.

On to `NC/C=C\C(=O)O` [cis-4-Aminocrotonic acid], for which the “Plate 1 (% inhibition)” value under setting [1] is -8.37%. For the same compound, the “Plate 1 (% conversion)” value under setting [2] is on record as 38.68%.

With `CN(C)CCC(c1ccc(Br)cc1)c1ccccn1.O=C(O)/C=C\C(=O)O` (racemic) [(±)-Brompheniramine maleate], the “Plate 1 (% inhibition)” value under setting [1] was found to be 8.96%. Also, the “Plate 1 (% conversion)” value under setting [2] worked out at 32.86%.

Turning to `Cl.Oc1cc2c(cc1O)C(c1ccccc1)CNCC2` (racemic) [(±)-SKF-38393 hydrochloride], the “Plate 2 (% conversion)” value is on record as 10.11%. The “Plate 2 (% inhibition)” value (20 µM) was determined as 77.21%.

Consider `CN1[C@@H]2CC[C@H]1C[C@@H](OC(c1ccccc1)c1ccccc1)C2` [Benztropine mesylate], for which the “Plate 1 (% inhibition)” value under setting [1] was -9.74%. Moreover, under setting [2], the “Plate 1 (% conversion)” value is on record as 39.14%.

In the case of Ro 90-7501, the “Plate 3 (% conversion)” value under setting [3] came out at 39.97%.

One may read the % inhibition as the change of the read-out against control, counted positive when it falls. Turning to `CN(C)c1ccc(/C=C2\C(=O)Nc3ccccc32)cc1` [SU 4312], the “% inhibition” value under setting [4] came out at 2.06%. Also, the “% conversion” value under setting [5] was 35.77%.

`CS(=O)(=O)O.Cc1c(O)cccc1C(=O)N[C@@H](CSc1ccccc1)[C@H](O)CN1C[C@H]2CCCC[C@H]2C[C@H]1C(=O)NC(C)(C)C.O` [Nelfinavir mesylate hydrate]: the “Plate 2 (% conversion)” value under setting [6] came to 32.94%. Besides, the “Plate 2 (% inhibition)” value under setting [7] amounted to 9.02%.

On to `COc1ccccc1CN[C@H]1CCCN[C@H]1c1ccccc1` [CP-100263], for which the “Plate 5 (% conversion)” value is recorded as 33.08% and the “Plate 5 (% inhibition)” value stood at 9.51%.

With `Cl.Cl.O=c1ccc2[nH]cc(C3=CCNCC3)c2[nH]1` [CP-93129 dihydrochloride hydrate], the “% conversion” value came to 37.25%. In addition, under setting [4], the “% inhibition” value is -2.28%.

Turning to `NC(=S)c1ccc[n+]([C@@H]2O[C@@H](COP(=O)([O-])OP(=O)(O)OC[C@H]3O[C@@H](n4cnc5c(N)ncnc54)C(OP(=O)([O-])O)[C@H]3O)C(O)C2O)c1.[Na+]` (stereo partly shown) [Thio-NADP sodium], under setting [5], the “% conversion” value was found to be 24.90%.

Regarding `CC1CNCCN1S(=O)(=O)c1cccc2cnccc12.Cl.Cl` (stereo not shown), the “Plate 3 (% conversion)” value under setting [3] stood at 5.68%.

As for `CCCCCCCCCCCCCCCCCCc1ccc(C(=O)/C=C/C(=O)O)cc1` [OBAA], the “Plate 1 (% inhibition)” value under setting [1] was -7.39%. The “Plate 1 (% conversion)” value under setting [2] was determined as 38.35%.

On to `C[N+](C)(C)CC#CCOC(=O)Nc1cccc(Cl)c1.[Cl-]` [McN-A-343], for which, under setting [1], the “Plate 1 (% inhibition)” value is listed as -1.57%. In addition, the “Plate 1 (% conversion)” value under setting [2] is recorded as 36.40%.

For the compound `C[N+](C)(C)CCOC(=O)CCC(=O)OCC[N+](C)(C)C` [Succinylcholine chloride], the “% conversion” value is on record as 39.43% and the inhibition at 20 µM was -8.69%.

Consider `CNC(=O)[C@H]1O[C@@H](n2cnc3c(NCc4cccc(I)c4)ncnc32)[C@H](O)[C@@H]1O` [IB-MECA], for which the “Plate 3 (% conversion)” value under setting [3] is 35.04%.

Regarding `O=C1CCC(c2ccc(-n3ccnc3)cc2)=NN1` [Imazodan], the “Plate 2 (% conversion)” value under setting [6] turned out to be 38.21%. The inhibition at 20 µM under setting [8] is -6.74%.

Regarding `CC1=C(/C=C/C(C)=C/C=C/C(C)=C/C=C/C=C(C)/C=C/C=C(C)/C=C/C2=C(C)C(=O)[C@@H](O)CC2(C)C)C(C)(C)C[C@H](O)C1=O` [Astaxanthin], the “Plate 1 (% inhibition)” value under setting [1] was -2.40%. For the same compound, the “Plate 1 (% conversion)” value under setting [2] was determined as 36.68%.

Consider `CN1CCc2cc(Cl)c(O)cc2[C@@H](c2ccccc2)C1.Cl` [R(+)-SCH-23390 hydrochloride], for which the “Plate 2 (% inhibition)” value under setting [7] is -3.60%.

For the compound `Nc1ccn([C@@H]2O[C@H](CO)[C@@H](O)C2(F)F)c(=O)n1` [Gemcitabine hydrochloride], the “Plate 1 (% inhibition)” value under setting [1] is 11.04%. Moreover, the “Plate 1 (% conversion)” value under setting [2] turned out to be 32.17%.

Turning to `CCCCCCCCCCCCCCCCCCN(CCCCCCCCCCCCCCCCCC)CCCN(CCO)CCO` [Avridine], under setting [5], the “% conversion” value was found to be 28.90%. Besides, for the setting “plate 5 (Pfitzer), test compounds at fixed 20 μM”, the “Plate 5 (% inhibition)” value was 10.21%. Also, the “Plate 5 (% conversion)” value (plate 5 (Pfitzer), test compounds at fixed 20 μM, mean conversion DMSO 32.88) came to 32.84%.

For the compound `CC(=O)c1c(O)c(C)c(O)c(Cc2c(O)c3c(c(C(=O)/C=C/c4ccccc4)c2O)OC(C)(C)C=C3)c1O` [Rottlerin], the “% conversion” value came out at 14.64% and the inhibition at 20 µM was 64%.

With `O=CN(O)CCCP(=O)([O-])O.[Na+]` [Fosmidomycin sodium salt hydrate], the “Plate 3 (% conversion)” value under setting [3] is on record as 34.84%.

Regarding `OC(CCN1CCCCC1)(c1ccccc1)C1CCCCC1` (stereo not shown) [Trihexyphenidyl hydrochloride], the “% conversion” value under setting [5] is on record as 39.76%. Also, the inhibition at 20 µM (LOPAC Plate 4, compound at 20 uM, read-out: % inhibition) is -9.65%.

For the compound `COC(=O)Nc1nc2ccc(C(=O)c3cccs3)cc2[nH]1` [Nocodazole], the “Plate 3 (% conversion)” value is 40.67%.

On to `CNCCc1c[nH]c2ccc(O)cc12.O=C(O)C(=O)O`, for which the “Plate 3 (% conversion)” value was found to be 9.71%.

With `Cn1c(=O)c2[nH]cnc2n(C)c1=O.Cn1c(=O)c2[nH]cnc2n(C)c1=O.NCCN` [Aminophylline ethylenediamine], the “Plate 1 (% inhibition)” value under setting [1] is -9.00%. For the same compound, the “Plate 1 (% conversion)” value under setting [2] was found to be 38.90%.

Consider `COc1ccccc1N1CCNCC1.Cl`, for which the “% conversion” value is 37.50%. In addition, the “% inhibition” value (20 µM) was -3.01%.

For the compound `O=C(O)c1cc2cc(F)ccc2[nH]1` [5-Fluoroindole-2-carboxylic acid], the “Plate 1 (% conversion)” value came out at 31.84% and the “Plate 1 (% inhibition)” value is reported as 12.00%.

In the case of CP-316819, the “Plate 5 (% conversion)” value is 34.19% and the “Plate 5 (% inhibition)” value was 6.23%.

Consider `Cc1nc2sccn2c(=O)c1CCN1CCC(=C(c2ccc(F)cc2)c2ccc(F)cc2)CC1` [Ritanserin], for which the “% conversion” value under setting [5] is listed as 37.56%.

Consider `CCCCCCCCCCCCCCC[C@H](O)[C@H](N)CO` (racemic) [DL-erythro-Dihydrosphingosine], for which, under setting [6], the “Plate 2 (% conversion)” value worked out at 62.82%. Moreover, the “Plate 2 (% inhibition)” value under setting [7] is listed as -80.23%.

On to `CC(C)(Oc1ccc(C2CC2(Cl)Cl)cc1)C(=O)O` (stereo not shown) [Ciprofibrate], for which, under setting [1], the “Plate 1 (% inhibition)” value is listed as -0.63%. Besides, under setting [2], the “Plate 1 (% conversion)” value turned out to be 36.08%.

`CC1CCN=C(N)S1.Cl` (racemic) [(±)-AMT hydrochloride]: the “Plate 1 (% conversion)” value is 36.89% and the “Plate 1 (% inhibition)” value is on record as -3.04%.

Consider `C[N+](C)(C)CCOC(=O)CBr.[Br-]` [Bromoacetylcholine bromide], for which the “Plate 1 (% conversion)” value is on record as 36.25% and the “Plate 1 (% inhibition)” value is on record as -1.12%.

Regarding `CCCCCc1ccc(/C=C/C(=O)Nc2cc(Cl)ccc2C(=O)O)cc1` [ONO-RS-082], the “Plate 3 (% conversion)” value under setting [3] came to 29.75%.

Regarding `O=C(N[C@@H](Cc1ccccc1)C(=O)CCl)OCc1ccccc1` [Z-L-Phe chloromethyl ketone], the “Plate 1 (% conversion)” value worked out at 35.86% and the “Plate 1 (% inhibition)” value amounted to 0.032%.

As for `C=C(c1ccc(C(=O)O)cc1)c1cc2c(cc1C)C(C)(C)CCC2(C)C` [Bexarotene], the “Plate 2 (% conversion)” value under setting [6] was 33.95%. Moreover, the inhibition at 20 µM under setting [8] turned out to be 6%.

With `CN(C)CCOC(c1ccccc1)c1ccccc1` [Diphenhydramine hydrochloride], under setting [8], the inhibition at 20 µM is -7.73%.

`O=C(c1ccc(F)cc1)C1CCN(CCn2c(=O)[nH]c3ccccc3c2=O)CC1` [Ketanserin tartrate]: the “% conversion” value under setting [5] is on record as 19.47%.

For the compound `C[C@]12CCC(=O)C=C1CC[C@@H]1[C@@H]2C(=O)C[C@@]2(C)[C@H]1CC[C@]2(O)C(=O)CO` [Cortisone], the “Plate 1 (% inhibition)” value under setting [1] was -8.46%. For the same compound, the “Plate 1 (% conversion)” value under setting [2] was determined as 38.71%.

`O=[N+]([O-])/C=C/c1ccc2c(c1)OCO2` [MNS]: under setting [6], the “Plate 2 (% conversion)” value is 25.80%. Besides, the “Plate 2 (% inhibition)” value under setting [7] was 30.34%.

Take `c1ccc(C2CN3CCSC3=N2)cc1` (stereo not shown) [Tetramisole hydrochloride]: under setting [5], the “% conversion” value turned out to be 38.57%.

For `Cl.NC1(C(=O)O)CC1`, under setting [1], the “Plate 1 (% inhibition)” value was -3.97%.

For `N=C(N)NC(=O)c1nc(Cl)c(N2CCCCCC2)nc1N` [5-(N,N-hexamethylene)amiloride], under setting [1], the “Plate 1 (% inhibition)” value was -28.14%. Moreover, under setting [2], the “Plate 1 (% conversion)” value is listed as 45.32%.

With `C=C[C@H]1C[N@@]2CC[C@H]1C[C@H]2[C@H](O)c1ccnc2ccc(OC)cc12` [Quinine sulfate], under setting [5], the “% conversion” value is given as 30.14%.

With `O=[N+]([O-])c1cccc2cn[nH]c12` [7-Nitroindazole], the “Plate 3 (% conversion)” value under setting [3] was found to be 35.80%.

As for `CC(C)NC[C@H](O)COc1cccc2ccccc12` [(S)-Propranolol hydrochloride], the “% conversion” value under setting [5] worked out at 27.07%.

Take `Nc1ncnc2c1ncn2C1CCCC1` [9-cyclopentyladenine]: under setting [1], the “Plate 1 (% inhibition)” value was 2.94%. Moreover, the “Plate 1 (% conversion)” value under setting [2] is reported as 34.88%.

Regarding `O=C(O)CC[N+](=O)[O-]` [3-Nitropropionic acid], the “Plate 3 (% conversion)” value was determined as 32.27%.
